One assay has as its target T1, PPARγ (Homo sapiens, UniProt P37231).
T1 construct: expressed in transfected cells; host or cells: human hepatocyte cell line L-02
T1 sequence (P37231 1-505): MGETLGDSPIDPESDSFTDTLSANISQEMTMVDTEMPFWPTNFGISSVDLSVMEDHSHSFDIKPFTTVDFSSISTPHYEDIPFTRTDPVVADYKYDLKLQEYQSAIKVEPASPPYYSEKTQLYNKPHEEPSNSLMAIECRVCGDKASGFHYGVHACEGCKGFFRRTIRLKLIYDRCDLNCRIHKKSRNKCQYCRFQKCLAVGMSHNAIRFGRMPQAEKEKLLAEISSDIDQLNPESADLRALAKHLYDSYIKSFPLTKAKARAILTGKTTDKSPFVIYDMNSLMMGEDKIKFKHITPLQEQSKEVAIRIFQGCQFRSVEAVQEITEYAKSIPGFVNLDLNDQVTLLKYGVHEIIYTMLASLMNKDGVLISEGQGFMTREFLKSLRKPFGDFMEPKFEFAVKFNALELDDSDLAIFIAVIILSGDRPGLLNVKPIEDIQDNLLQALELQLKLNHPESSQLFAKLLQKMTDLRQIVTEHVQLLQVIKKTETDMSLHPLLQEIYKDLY
T1 sequence (P19793 1-462 partner): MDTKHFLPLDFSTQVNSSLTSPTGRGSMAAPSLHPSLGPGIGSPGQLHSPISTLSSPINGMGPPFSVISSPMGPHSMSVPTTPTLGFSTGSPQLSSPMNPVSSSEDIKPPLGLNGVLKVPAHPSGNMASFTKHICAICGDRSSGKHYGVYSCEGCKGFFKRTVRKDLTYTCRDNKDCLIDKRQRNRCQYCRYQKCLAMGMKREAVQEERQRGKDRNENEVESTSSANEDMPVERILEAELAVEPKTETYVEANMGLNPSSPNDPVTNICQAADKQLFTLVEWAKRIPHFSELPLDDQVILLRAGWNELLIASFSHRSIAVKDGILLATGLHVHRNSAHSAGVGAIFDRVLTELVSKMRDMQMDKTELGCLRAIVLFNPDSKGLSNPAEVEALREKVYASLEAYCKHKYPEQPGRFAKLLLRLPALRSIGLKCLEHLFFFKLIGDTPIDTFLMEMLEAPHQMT
As to the kind of experiment: PPAR reporter gene model in L-02 cells, PPARγ. Format: cell-based. Particulars: luciferase reporter, 24 hours drug, read-out: Half-maximal activation concentration of reporter gene AC50, PPARγ. How it is done:
(§1) The PPAR reporter gene model comprises three subtypes of expression plasmids, RXR expression plasmid, plasmid with luciferase reporter gene, and GFP expression plasmid as an external reference. The human hepatocyte cell line L-02 cells were seeded into 96-well plates at the density of 15,000 cells/well with about 50% plating rate, followed by culturing for 24 hours at 37° C. […] The fluorescence intensity (at wavelength 485-527 nm) of green fluorescent protein (GFP) in each well was firstly detected as an internal standard by a fluorescence detector, and then 30 μL of luciferase substrates (Promega, E151A) were added to each well. After slightly shaking to mix well, the […] were detected. The relative reporter gene activation intensity was obtained by the ratio of the fluorescence detection signal of the drugs to be tested to that of the solvent control, with both the signals normalized to the internal standard GFP signal. The half-maximal activation (AC50) of the drugs to be tested was calculated with the activity at various concentrations (shown in Table 1).
(In general: Reporter assays use an easily measured gene product as a stand-in for the process of interest.)

In assay [1] the test system is α-smooth muscle actin (α-SMA). Briefly: TGF-β1-activated hepatic stellate cells, α-SMA gene expression (qPCR). It is filed as cell-based, human. Particulars: TGF-β1 stimulation, 24 hours; FIG. 4. How it is done:
Human primary hepatic stellate cells were seeded into 6-well plates with complete growth media (Stellate Cell Medium) for 24 hours, and then the culture media were replaced by fresh media (free of serum and growth factors) containing TGF-β1 and the compound to be tested (sodium chiglitazar) or the reference compound PPARγ/α dual agonist pioglitazone or PPARα/δ dual agonist GFT505 (both purchased from Selleck), and the cells were cultured for 24 hours. The total RNAs of the samples were extracted, and reverse transcription reaction was performed. Thereafter, a conventional PCR amplification kit (FastStart Universal SYBR@ Green Master (ROX), Roche) was used for further detection, where the PCR primers were designed with reference to the NCBI standard mRNA sequence of the target genes (Table 2). PCR reaction and detection were carried out on the ABI StepOnePlus real-time quantitative PCR instrument. By calculating the relative amount of transcripts was calculate by “Delta-Delta CT method” (Livak et al. Methods 2001), and using ACTB as the housekeeping gene for normalization and the average data of untreated human hepatic stellate cells as a reference control, the relative change folds of gene expression were obtained (FIG. 4).

The target of another assay is T2, PPARδ (Homo sapiens, UniProt Q03181).
T2 construct: expressed in transfected cells; host or cells: human hepatocyte cell line L-02
T2 sequence (Q03181 1-441): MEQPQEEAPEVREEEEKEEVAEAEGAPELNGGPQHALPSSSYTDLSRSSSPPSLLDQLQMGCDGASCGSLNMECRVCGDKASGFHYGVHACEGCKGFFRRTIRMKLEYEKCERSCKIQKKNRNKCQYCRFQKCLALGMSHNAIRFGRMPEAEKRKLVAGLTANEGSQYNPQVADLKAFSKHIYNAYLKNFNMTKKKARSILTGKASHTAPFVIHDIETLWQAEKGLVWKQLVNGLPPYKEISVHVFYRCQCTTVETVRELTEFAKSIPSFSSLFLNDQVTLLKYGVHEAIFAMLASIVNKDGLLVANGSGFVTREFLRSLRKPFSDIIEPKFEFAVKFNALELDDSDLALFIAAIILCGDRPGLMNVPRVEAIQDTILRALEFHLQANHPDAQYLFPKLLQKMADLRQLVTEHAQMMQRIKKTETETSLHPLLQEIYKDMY
T2 sequence (P19793 1-462 partner): T1 sequence (P19793 1-462 partner)
Briefly: PPAR reporter gene model in L-02 cells, PPARδ. Format: cell-based. Particulars: luciferase reporter, 24 hours drug, read-out: Half-maximal activation concentration of reporter gene AC50, PPARδ. How it is done: as §1

For the molecule `O=C(c1ccc(F)cc1)c1ccccc1N[C@@H](Cc1ccc(OCCn2c3ccccc3c3ccccc32)cc1)C(=O)[O-].[Na+]` [sodium chiglitazar], the AC50 at PPARγ is 91 nM; on PPARδ it was 708 nM. For the same molecule, the “Effect on expression of α-smooth muscle actin” value in assay [1] is reported as “significantly inhibited”.

These data come from patent publication US20210386705A1, “APPLICATION OF CHIGLITAZAR AND RELATED COMPOUNDS THEREOF” (SHENZHEN CHIPSCREEN BIOSCIENCES CO., LTD., priority 2018, published 2021).
